6 molecules from ChEMBL document CHEMBL1221242, “Design and synthesis of HCV agents with sequential triple inhibitory potentials” (2010) can be followed below.

The test system of assay [1] is Hepatitis C virus. The experiment in a line: Inhibition of HCV 1b NS5B Cdelta21 polymerase expressed in Escherichia coli assessed as inhibition of [alpha-33P]GTP incorporation into RNA relative to HCV-796. Set-up: species or system Hepatitis C virus subtype 1b.
The next assay relates to Hepacivirus hominis. The assay can be described thus: Ratio of inhibition of HCV 1b NS5B Cdelta21 polymerase to inhibition of HCV relative to HCV-796.
The test system of assay [2] is Hepatitis C virus. The assay can be described thus: Antiviral activity against HCV infected in human BB7 cells assessed as inhibition of viral replication after 3 days relative to HCV-796. In kind it is functional, Hepacivirus hominis.

`CNC(=O)c1c(-c2ccc(F)cc2)oc2cc(N(CCOP(=O)(O)OC[C@H]3O[C@@H](n4cnc(C(N)=O)n4)[C@@H]4OC(C)(C)O[C@@H]43)S(C)(=O)=O)c(C3CC3)cc12`: the results for the Ratio with Hepatitis C virus [1], with Hepacivirus hominis and in the assay with Hepatitis C virus [2] were 11.8, 1.57 and 18.6, respectively.
The corresponding values for `CNC(=O)c1c(-c2ccc(F)cc2)oc2cc(N(CCOC(=O)CCC(=O)OC[C@H]3O[C@@H](n4cnc(C(N)=O)n4)[C@H](O)[C@@H]3O)S(C)(=O)=O)c(C3CC3)cc12` are 22, 0.28 and 6.2.
The corresponding values for `CNC(=O)c1c(-c2ccc(F)cc2)oc2cc(N(CCOC(=O)CCC(=O)OC[C@H]3O[C@@H](n4cnc(C(N)=O)n4)[C@@H]4OC(C)(C)O[C@@H]43)S(C)(=O)=O)c(C3CC3)cc12` are 42, 0.31 and 13.
The like results for `CNC(=O)c1c(-c2ccc(F)cc2)oc2cc(N(CCOP(=O)(O)OC[C@H]3O[C@@H](n4cnc(C(N)=O)n4)[C@H](O)[C@@H]3O)S(C)(=O)=O)c(C3CC3)cc12` were, in that order, 6.2, 1.18 and 7.3.
Regarding `CNC(=O)c1c(-c2ccc(F)cc2)oc2cc(N(CCO)S(C)(=O)=O)c(C3CC3)cc12` [NESBUVIR], the Ratio with Hepatitis C virus [1], with Hepacivirus hominis and in the assay on Hepatitis C virus [2] was 1 each time.
Regarding `CNC(=O)c1c(-c2ccc(F)cc2)oc2cc(N(CCOP(=O)(O)O)S(C)(=O)=O)c(C3CC3)cc12`, the Ratio with Hepatitis C virus [1] amounted to 0.4; in the assay on Hepacivirus hominis, 22.2; with Hepatitis C virus [2], 8.9.
